The values that follow come from US12559496B2, “Imidazopyrimidines as modulators of IL-17” (Janssen Pharmaceutica NV, priority 2020, dated 2026).

Assay [1] addresses IL-17A(FLAG-Tagged): IL-17RA(His-Tagged) (Homo sapiens, UniProt Q16552, K93Q). The assay can be described thus: IL-17A(FLAG-Tagged): IL-17RA(His-Tagged) Binding Disruption Eu-HTRF Assay. The settings on record: disruption of IL-17A/IL-17RA binding; simple average if tested more than once. Summed up: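 Compound (22-point 2-fold series) was preincubated 1 h at rt with FLAG-IL-17A, then His-IL-17RA, Eu-anti-FLAG and D2-anti-His were added in PBS/0.01% Triton X-100 with 200 mM KF for 2 h at rt. The ratio of 665 and 620 nm intensities versus concentration was fitted to one-site competition for IC50.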

Assay [2] concerns IL-17A-induced G-CSF production in human normal keratinocytes (NHK). As to the kind of experiment: NHK Assay: IL-17A-induced G-CSF production in human normal keratinocytes. Format: cell-based. The settings on record: Homo sapiens, Keratinocyte, 24 h, IL-17A 5 ng/mL, 5% FBS, simple average if tested more than once. A digest of the protocol:
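Adult normal human keratinocytes treated 24 h at 37 °C with IL-17A (5 ng/mL final) pre-incubated 1 h at rt with titrated compound; 0.2% DMSO, 5% FBS. G-CSF in supernatant measured by HTRF against a standard curve to give IC50; viability checked by CellTiter-Glo.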

For assay [3] the following is noted: seven of nine patients with moderate-to-severe HS, open-label pilot-trial (Prussick et al. 2019); cited from earlier work.

Chain of UniProt Q16552 (Q16552 with tags, fused parts or gaps K93Q): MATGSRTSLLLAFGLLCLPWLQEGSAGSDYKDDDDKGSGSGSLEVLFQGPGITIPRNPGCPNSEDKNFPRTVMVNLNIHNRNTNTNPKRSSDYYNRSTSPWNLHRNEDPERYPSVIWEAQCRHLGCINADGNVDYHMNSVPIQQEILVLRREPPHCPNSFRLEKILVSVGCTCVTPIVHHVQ

As to `O=C(CC1CC(F)(F)C1)N[C@@H](c1ccn2cc([C@@H](NC(=O)c3nonc3C3CC3)C3CCC(F)(F)CC3)nc2n1)C1CC1` [Example 62, 4-Cyclopropyl-N—((S)-(7-((R)-cyclopropyl(2-(3,3-difluorocyclobutyl)acetamido)methyl)imidazo[1,2-a]pyrimidin-2-yl)(4,4-difluorocyclohexyl)methyl)-1,2,5-oxadiazole-3-carboxamide], the concentration for half-maximal inhibition (IC50) was 91 nM in assay [1] and 120 nM in assay [2].
The like results for `O=C(CC1CC(F)(F)C1)N[C@@H](c1ccn2cc([C@@H](NC(=O)c3nocc3CC(F)(F)F)C3CCC(F)(F)CC3)nc2n1)C1CC1` [Example 63, N—((S)-(7-((R)-Cyclopropyl(2-(3,3-difluorocyclobutyl)acetamido)methyl)imidazo[1,2-a]pyrimidin-2-yl)(4,4-difluorocyclohexyl)methyl)-4-(2,2,2-trifluoroethyl)isoxazole-3-carboxamide] were, in that order, 220 nM and 640 nM.
For secukinumab, in assay [3], the “patients achieving HiSCR” value is 78%.
